≈ marks a conversion by molar mass, not a printed value.
Columns and labels:
[1] = system: Pseudomonas aeruginosa; experiment: microbe, parasite or virus in culture; details: ATCC 27853, 18 h, ASSAY_TEST Inhibition of Bacterial Growth, detection method Absorption (OD600), MEDIA CAMHB, plate type 384well, NBS, CORNING #3640
Description: Antibacterial activity against Pseudomonas aeruginosa ATCC 27853 (CO-ADD:GN_042); MIC in CAMBH media using NBS plates, by OD(600)

[2] = system: Staphylococcus aureus; experiment: microbe, parasite or virus in culture; details: ATCC 43300, 18 h, ASSAY_TEST Inhibition of Bacterial Growth, detection method Absorption (OD600), MEDIA CAMHB, plate type 384well, NBS, CORNING #3640
Description: Antibacterial activity against Staphylococcus aureus MRSA ATCC 43300 (CO-ADD:GP_020); MIC in CAMBH media, using NBS plates, by OD(600)

[3] = system: Cryptococcus neoformans
Description: Antifungal activity against Cryptococcus neoformans H99 ATCC 208821 (CO-ADD:FG_002); MIC in YNB media using NBS plates, by Resazurin OD(600-570)

[4] = system: Klebsiella pneumoniae; experiment: microbe, parasite or virus in culture; details: ATCC 700603, 18 h, ASSAY_TEST Inhibition of Bacterial Growth, detection method Absorption (OD600), MEDIA CAMHB, plate type 384well, NBS, CORNING #3640
Description: Antibacterial activity against Klebsiella pneumoniae MDR ATCC 70063 (CO-ADD:GN_003); MIC in CAMBH media using NBS plates, by OD(600)

[5] = system: HEK293; experiment: cells; type: functional; details: Homo sapiens, ATCC CRL1573, HEK293; ASSAY_TEST Inhibition of Cell Viability; detection method Resazurin; Fluorescence (ex560/em590); MEDIA DMEM with 10% FBS; plate type 384well; TC; CORNING #3712; time 18 hr
[6] = system: Escherichia coli; experiment: microbe, parasite or virus in culture; details: ATCC 25922, 18 h, ASSAY_TEST Inhibition of Bacterial Growth, detection method Absorption (OD600), MEDIA CAMHB, plate type 384well, NBS, CORNING #3640
Description: Antibacterial activity against Escherichia coli ATCC 25922 (CO-ADD:GN_001); MIC in CAMBH media using NBS plates, by OD(600)

[7] = system: Acinetobacter baumannii; experiment: microbe, parasite or virus in culture; details: ATCC 19606, 18 h, ASSAY_TEST Inhibition of Bacterial Growth, detection method Absorption (OD600), MEDIA CAMHB, plate type 384well, NBS, CORNING #3640
Description: Antibacterial activity against Acinetobacter baumannii ATCC 19606 (CO-ADD:GN_034); MIC in CAMBH media using NBS plates, by OD600

[8] = system: Candida albicans; experiment: microbe, parasite or virus in culture; details: ATCC 90028, ASSAY_TEST Inhibition of Fungal Growth, detection method Absorption (OD530), plate type 384well, NBS, CORNING #3640
Description: Antifungal activity against Candida albicans ATCC 90028 (CO-ADD:FG_001); MIC in YNB media using NBS plates, by OD630

Row | SMILES | MIC [1] | MIC [2] | MIC [3] | MIC [4] | MIC [6] | MIC [7] | MIC [8] | CC50 [5]
1 | Cc1ccccc1NC(=O)NCCN1CC1 | > 10 µM | > 10 µM | > 10 µM | > 10 µM | > 10 µM | > 10 µM | > 10 µM | > 10 µM
2 | Sc1ncnc2c1ncn2C1CCCO1 (stereo unspecified) | > 10 µM | > 10 µM | > 10 µM | > 10 µM | > 10 µM | > 10 µM | > 10 µM | > 10 µM
3 | O=C(c1cccnc1)C1Cc2ccccc2C1=O (stereo unspecified) | > 10 µM | > 10 µM | > 10 µM | 5 µM (≈ 1.19 µg/mL) | > 10 µM | > 10 µM | > 10 µM | > 10 µM
4 | CN(C)c1ccc(/N=N/c2ccccn2)cc1 | > 10 µM | > 10 µM | > 10 µM | > 10 µM | > 10 µM | > 10 µM | 10 µM (≈ 2.26 µg/mL) | > 10 µM
5 | Cc1ccc2ccc(C#N)cc2c1O | > 10 µM | > 10 µM | > 10 µM | > 10 µM | > 10 µM | > 10 µM | > 10 µM | > 10 µM
6 | O=[N+]([O-])c1cc([N+](=O)[O-])c2cccnc2c1O | > 10 µM | > 10 µM | > 10 µM | > 10 µM | > 10 µM | > 10 µM | 10 µM (≈ 2.35 µg/mL) | > 10 µM
7 | O=[N+]([O-])c1ccc(/C=[N+](\[O-])CCO)o1 | > 10 µM | > 10 µM | > 10 µM | > 10 µM | 10 µM (≈ 2 µg/mL) | > 10 µM | > 10 µM | > 10 µM
8 | CC1(C)CC(=O)CC(C)(C)N1O | > 10 µM | > 10 µM | > 10 µM | > 10 µM | > 10 µM | > 10 µM | > 10 µM | > 10 µM
9 | Oc1c(/N=N/c2nnn[nH]2)ccc2ccccc12 | > 10 µM | > 10 µM | > 10 µM | > 10 µM | > 10 µM | > 10 µM | > 10 µM | > 10 µM
10 | C1C2CC3C1C3/C2=N\N=C1/C2CC3C(C2)C13 | > 10 µM | > 10 µM | > 10 µM | > 10 µM | > 10 µM | > 10 µM | > 10 µM | > 10 µM
11 | CCC(C)c1cnc(CC(C)C)c(=O)n1O (stereo unspecified) | > 10 µM | > 10 µM | > 10 µM | > 10 µM | > 10 µM | > 10 µM | > 10 µM | > 10 µM

Further lines, with some results ahead:

Row | MIC [1] | MIC [2] | MIC [3] | MIC [4] | MIC [6] | MIC [7] | MIC [8] | SMILES | CC50 [5]
12 | > 10 µM | > 10 µM | > 10 µM | > 10 µM | > 10 µM | > 10 µM | > 10 µM | Cc1cc2cc3c(O)nc(O)nc3nc2cc1C | > 10 µM
13 | > 10 µM | > 10 µM | 10 µM (≈ 2.08 µg/mL) | > 10 µM | > 10 µM | > 10 µM | 10 µM (≈ 2.08 µg/mL) | O=[N+]([O-])c1cc(F)c2cccnc2c1O | > 10 µM
14 | > 10 µM | > 10 µM | > 10 µM | > 10 µM | > 10 µM | > 10 µM | > 10 µM | Cc1cc2nc(CS)[nH]c2cc1C | > 10 µM
15 | > 10 µM | > 10 µM | 5 µM (≈ 1.2 µg/mL) | > 10 µM | > 10 µM | > 10 µM | 5 µM (≈ 1.2 µg/mL) | O=[N+]([O-])c1cnc(Sc2ccncn2)s1 | > 10 µM
16 | > 10 µM | > 10 µM | 1.25 µM (≈ 0.216 µg/mL) | > 10 µM | > 10 µM | > 10 µM | 0.625 µM (≈ 0.108 µg/mL) | O=Cc1ccc(O)c2ncccc12 | > 10 µM
17 | > 10 µM | > 10 µM | > 10 µM | > 10 µM | > 10 µM | > 10 µM | > 10 µM | Sc1nc2cc(-c3ccccc3)ccc2o1 | > 10 µM

Source: ChEMBL document CHEMBL4296182, “CO-ADD screening of NIH NCI Diversity Set V”
